# Data: US10576147B2, “Muramyl peptide derivative compound, synthesis and uses thereof” (BHARAT BIOTECH INTERNATIONAL LIMITED, priority 2015, dated 2020)
# Assays:
# BALB/c mice [1] = assay: TH1:TH2 index from HBsAg specific IgG isotypes; type: in vivo
# From the text: It is known that, IgG subclasses produced after the immunization against given antigen, primarily determines the function of the antibody or indirectly measures the relative contribution of TH1 versus TH2 type cytokine induction. More specifically, production of IgG1 antibodies induces TH2 type cytokines, whereas, production of IgG2a & IgG3 antibodies induces TH1 type cytokines. […] In this context, in the present invention, we determined the levels of IgG isotypes (IgG1, IgG2a & IgG3), raised against HBsAg in the presence or absence of MDP-MN (at 10 & 50 μg/mouse) and calculated TH1: TH2 index then calculated as ([IgG2a+IgG3]/2)/(IgG1). Details of assay protocol as described below as in example 3.1.3. According to such calculation, an index value <1 stands for a TH2 polarization; an index value >1 stands for a TH1 polarization.
# Analysis of antigen specific IgG antibody subclasses (isotypes namely IgG1 or IgG2a or IgG3) was performed as mentioned in example 3.1.2, except at one step, where goat anti-mouse IgG1 or IgG2a or IgG3 HRP was used at a dilution of 1:5000 (in place of goat anti-mouse IgG) TH1:TH2 index obtained at 10 & 50 μg/mouse of MDP-MN is as shown in FIG. 5c.
# J774.2A cells = assay: Cytotoxicity assay (MTT); type: cell-based; conditions: 24 hrs, read-out: IC50 (50% cell death or toxicity)
# Method: Details of an assay are as explained in example 2.2.
# J774.2A cells (2×10^4/well) were plated and incubated overnight. Next day, cells were treated with various concentrations of MDP-MN (10 fold dilutions with a concentration ranging from 0.005 mg/ml to 0.5 mg/ml & 2 mg/ml) and cultured for 24 hrs. Supernatant was discarded and cells were treated with 100 μl of MTT [3-(4,5-Dimethylthiazol-2-yl)-2,5-Diphenyltetrazolium Bromide] (5 mg/ml) and incubated for 3-4 hrs until formozan crystals were formed. Later, supernatant was discarded and crystals were dissolved with DMSO for 5-10 min. Absorbance was read at 540 nm. FIG. 2 represents cell toxicity effect of MDP-MN. X-axis represents concentration in log scale and Y-axis represents % toxicity.
# splenocytes = assay: Splenocyte proliferation (MTT); type: cell-based, mice; conditions: mouse splenocytes, LPS and Con-A, 48 h
# Method: Spleens were isolated from mice and were processed to single cell suspension. 96 well flat bottom Micro titer plates were seeded with 1×10^5 cells/well with RPMI1640 media. Cells were treated with compounds, OVA, Con A (2 μg/mL) and LPS (10 μg/mL) or medium giving a final volume of […]. Plates were incubated at 37° C. with 5% CO2 in an incubator. After 48 h of incubation […] of Triazolyl blue Tetrazolium Bromide (MTT) solution was added to each well, incubated for next 4 h. Untransformed MTT was removed from each well by aspirating the supernatant ([…]) and replaced with DMSO. The absorbance was read at 570 nm after 15 min.
# Immunostimulating substances act through specific (antigen-dependent) T lymphocytes, B lymphocytes, and dendritic cells and also through non-specific mechanisms of action (antigen-independent) that involves granulocytes, macrophages, and NK cells. Being a secondary lymphoid organ, spleen contains a heterogeneous population of lymphocytes to examine the immunostimulant activity. However, proliferations of immune cells like T and B cells are the benchmark for immune potentiation. Cells were treated with or without OVA or in combination with MDP and MDP-MN. Type of immune response in all treated groups was measured with LPS and Con-A splenocyte proliferation assays depicted in FIG. 3. […] This is essential for B cell expansion.
# BALB/c mice [2] = assay: HBsAg specific total IgG endpoint titer (ELISA); type: in vivo
# Method: Female BALB/c mice (6-8 week old, n=6/group) were vaccinated intramuscularly (i.m, at two quadriceps) on Day 0 & Day 28 with vehicle control or Hepatitis B antigen (20 μg/mouse/dose/100 μl, 50 μl per quadricep) with and without MDP-MN (10 μg or 50 or 100 μg/mouse/dose/100 μl) diluted in Phosphate buffered saline. Prior to immunization, Hepatitis B surface antigen was mixed with MDP-MN, by gentle agitation (1:1 ratio), under sterile conditions. Mice were bled and euthanized on Day 42. Blood was collected & serum was isolated to evaluate analyze antigen specific total IgG antibody titer (as in example 3.1.2) and antibody subclasses (isotypes namely IgG1 or IgG2a or IgG3, as in example 3.1.3).
# Serial dilutions of individual serum samples ([…] ranging from 1:50 to 819200) were used to determine the endpoint titer of antigen specific total IgG antibody titer by ELISA. Details of assay protocol as described below.
# For analysis of antigen specific antibody titer, hepatitis B surface antigen was suspended in 50 mM carbonate bicarbonate buffer, pH 9.6 and coated at a concentration (1 μg/ml, 100 μl/well) in 96 well plates and kept at 4° C. for overnight. Next day, plates were washed with washing buffer (PBST-Phosphate buffered saline, pH 7.4 with 0.05% Tween) and blocked with blocking buffer (PBS with 1% BSA) at RT for 1-2 hr. ELISA plates were washed again with wash buffer (PBS, 0.05% Tween™20) and added serially diluted (in PBS, 0.1% BSA, 0.05% Tween™20, 0.02% sodium azide) sera from hyper immunized mice and incubated at RT for 1 hr. After incubation, wells were again washed and added Goat Anti-mouse IgG HRP conjugate antibody at a dilution of 1:5000 & incubated for 1 hr at RT. Later, wells were washed, and developed with OPD (O-phenylene diamine) as a substrate for 15 min. Reaction was stopped using 2N H2SO4. Absorbance was read at 490 nm. Threshold (Mean+3SD) was established by taking the absorbance of negative control (PBS) group, followed by the reactive index (ratio of absorbance at a particular dilution & threshold), so as to determine end point titer. […]
compound,measurement,setting,value
"C[C@H](NC(=O)[C@@H](C)O[C@H]1[C@H](O)[C@@H](CO)OC(O)[C@@H]1NC(=O)[C@H](O)CO)C(=O)N[C@H](CCC(=O)O)C(N)=O (stereo partly drawn) [MDP-MN, (4R)-5-amino-4-((2S)-2-((2R)-2-(((3R,4R,5S,6R)-3-((2,3-dihydroxypropanamido))-2,5-dihydroxy-6-(hydroxymethyl)tetrahydro-2H-pyran-4-yl)oxy)propanamido)propanamido)-5-oxopentanoic acid]",TH1:TH2 index ([IgG2a+IgG3]/2)/(IgG1),BALB/c mice [1]; HBsAg in the presence of MDP-MN (10 & 50 μg/mouse),2.5
same,TH1 type cytokines induction,BALB/c mice [1]; mice vaccinated with Hepatitis B surface antigen in presence of MDP-MN,induced TH1 type cytokines
same,IC50,J774.2A cells,99.2 µg/mL
same,splenocyte proliferation,splenocytes,inducing the LPS mediated splenocyte proliferation
same,increase of antibody titer vs HBsAg alone,BALB/c mice [2]; MDP-MN 50 μg/mouse,4 fold
same,increase of antibody titer vs HBsAg alone,BALB/c mice [2]; MDP-MN 100 μg/mouse,8 fold
same,increase of humoral response (TH2),"BALB/c mice [2]; mice vaccinated with Hepatitis B surface antigen in presence of MDP-MN, dose dependent",4-8 fold
